Molecules are shown by their SMILES.

This is an account of results in patent publication US9255257B2, “PmST1 mutants for chemoenzymatic synthesis of sialyl lewis X compounds” (THE REGENTS OF THE UNIVERSITY OF CALIFORNIA, priority 2011, dated 2016).

For assay [1], the target named is Pasteurella multocida PmST1 mutant D141A (Pasteurella multocida, UniProt Q15KI8, D141A). Put plainly: CMP-Neu5Ac (donor) hydrolysis activity, capillary electrophoresis. As to conditions: apparent, Tris-HCl pH 8.5, 37° C., 40 min.
Experimental: (§4) The reactions were stopped by adding 10 μL of pre-chilled ethanol. The mixtures were incubated on ice for 30 min and centrifuged at 13,000 rpm for 5 min. The supernatants were diluted with borate buffer (25 mM, pH 9.5) and aliquotes of 5 μL each were injected to a Beckman Coulter P/ACE™ MDQ Capillary Electrophoresis system equipped with a capillary (60 cm×75 μm i.d.) and monitored at 254 nm. The apparent kinetic parameters were obtained by fitting the experimental data (the average values of duplicate assay results) into the Michaelis-Menten equation using Grafit 5.0.
For assay [2], the target named is Pasteurella multocida α2-3-sialyltransferase 1 (PmST1), wild type (WT), SEQ ID NO: 13 (Pasteurella multocida, UniProt Q15KI8). As to conditions: apparent, donor, with LacβMU, read-out: Km for CMP-Neu5Ac; cited from earlier work.
Assay [3] concerns the target Pasteurella multocida PmST1 mutant E271F of SEQ ID NO: 13 (E247F of Δ24PmST1, SEQ ID NO: 7) (Pasteurella multocida, UniProt Q15KI8, E271F). Put plainly: α2-3-sialyltransferase activity, LacβMU as acceptor. In kind it is biochemical. As to conditions: apparent, donor, LacβMU 1 mM, Tris-HCl pH 8.5, 37° C. The method, then:
(§1) To obtain the apparent kinetic parameters of LacβMU as the acceptor for the α2-3-sialyltransferase activity, the kinetic assays were performed in duplicate in reaction mixtures of 10 μL containing Tris-HCl buffer (100 mM, pH 8.5), a fixed concentration of CMP-Neu5Ac (1 mM), different concentrations of LacβMU (0.2, 0.5, 1.0, 2.0, 5.0, and 9.0 mM) and the mutant proteins (2 μg mL^−1 of E271F, 2 μg mL^−1 of R313Y, and 1.6 μg mL^−1 of E271F/R313Y). All reactions were allowed to proceed at 37° C. for 5 min (E271F), 7 min (R313Y), and 10 min (E271F/R313Y). The apparent kinetic parameters were obtained by fitting the experimental data (the average values of duplicate assay results) into the Michaelis-Menten equation using Grafit 5.0.
(§2) To obtain the apparent kinetic parameters of CMP-Neu5Ac as the donor for the α2-3-sialyltransferase activity, the kinetic assays were performed in duplicate in reaction mixtures of 10 μL containing Tris-HCl buffer (100 mM, pH 8.5), a fixed concentration of LacβMU (1 mM), different concentrations of CMP-Neu5Ac (0.1, 0.2, 0.5, 1.0, 2.0, 5.0, 10.0 and 20.0 mM) and the mutant proteins (2 μg mL^−1 of E271F, 2 μg mL^−1 of R313Y, and 1.6 μg mL^−1 of E271F/R313Y). All reactions were allowed to proceed at 37° C. for 2 min (E271F), 7 min (R313Y), and 5 min (E271F/R313Y). The apparent kinetic parameters were obtained by fitting the experimental data (the average values of duplicate assay results) into the Michaelis-Menten equation using Grafit 5.0.
(§3) All the sialidase and α2-3-sialyltransferase assays were performed in an HPLC system. Reactions were stopped by adding 10 μL of ethanol. After necessary dilutions were performed to adjust the concentrations of the fluorescent-labeled compounds, the samples were then kept on ice until aliquots of 8 μL were injected and analyzed by a Shimadzu LC-6AD system equipped with a membrane on-line degasser, a temperature control unit, and a fluorescence detector (Shimadzu RF-10AXL). A reverse-phase Premier C18 column (250×4.6 mm i.d., 5 μm particle size, Shimadzu) protected with a C18 guard column cartridge was used. The mobile phase was 25% acetonitrile. The fluorescent compounds LacβMU and Neu5Acα2-3LacβMU were detected by excitation at 325 nm and emission at 372 nm.

Assay [4] concerns the target Pasteurella multocida PmST1 double mutant E271F/R313Y of SEQ ID NO: 13 (E247F/R289Y of Δ24PmST1, SEQ ID NO: 11) (Pasteurella multocida, UniProt Q15KI8, E271F/R313Y). Described as above. The assay is classed as biochemical. To be noted: apparent, donor, LacβMU 1 mM, Tris-HCl pH 8.5, 37° C. The method, then: as §1, §2, §3
The target of assay [5] is Pasteurella multocida PmST1 mutant R313Y of SEQ ID NO: 13 (R289Y of Δ24PmST1, SEQ ID NO: 9) (Pasteurella multocida, UniProt Q15KI8, R313Y). The description is as above. The assay is classed as biochemical. To be noted: apparent, donor, LacβMU 1 mM, Tris-HCl pH 8.5, 37° C. On the procedure: as §1, §2, §3
For assay [6], the target named is Pasteurella multocida PmST1 mutant H311A (Pasteurella multocida, UniProt Q15KI8, H311A). Kind of assay: CMP-Neu5Ac (donor) hydrolysis activity, capillary electrophoresis. To be noted: apparent, Tris-HCl pH 8.5, 37° C., 20 min.
Experimental: as §4

With `CC(=O)N[C@H]1[C@H]([C@H](O)[C@H](O)CO)O[C@](OP(=O)(O)OC[C@H]2O[C@@H](n3ccc(N)nc3=O)[C@H](O)[C@@H]2O)(C(=O)O)C[C@@H]1O` [CMP-Neu5Ac], the kcat (in general, the number of substrate molecules converted per active site and unit of time at saturation) in assay [1] is “(2.5 ± 0.1) × 10^−2 s^−1”; in assay [6], 2.1 ± 0.1 s⁻¹. The Michaelis-Menten constant (Km) (as a rule, the substrate concentration at which the rate is half of its maximum) in assay [2] was 440 µM. Moreover, the “kcat (CMP-Neu5Ac)” value in assay [3] is 26 ± 1 s⁻¹; in assay [4] it was 23 ± 1 s⁻¹; in assay [5] it was 19 ± 1 s⁻¹.
